Assay type in all cases: functional
The test system of one test is CHO-K1. Description: Counterscreen for antagonists of the orexin 1 receptor (OX1R; HCRTR1): Homogeneous time resolved fluorescence (HTRF)-based cell-based dose response assay to identify antagonists of the parental CHO-K1 cell line. [Related pubchem assays (depositor defined):AID434989, AID435008, AID463079, AID485270, AID492963, AID492964, AID492965, AID493232, AID504699, AID504701]. The conditions noted are these: Cricetulus griseus.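 Further: potency for inhibition of ATP-stimulated IP1 production as antagonists.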

Test [1] in a line: Counterscreen for antagonists of the orexin 1 receptor (OX1R; HCRTR1): Fluorescence-based cell-based high throughput dose response assay to identify antagonists of the parental CHO cell line. [Related pubchem assays (depositor defined):AID434989, AID435008, AID463079, AID485270, AID492963, AID492964, AID492965, AID493232, AID504699, AID504701]. (In general: The purpose of a counterscreen is to sort out artefacts and off-target activity.)

In test [2] the target is T1, Orexin/Hypocretin receptor type 1 (Homo sapiens, UniProt O43613).
T1 sequence (O43613 whole entry): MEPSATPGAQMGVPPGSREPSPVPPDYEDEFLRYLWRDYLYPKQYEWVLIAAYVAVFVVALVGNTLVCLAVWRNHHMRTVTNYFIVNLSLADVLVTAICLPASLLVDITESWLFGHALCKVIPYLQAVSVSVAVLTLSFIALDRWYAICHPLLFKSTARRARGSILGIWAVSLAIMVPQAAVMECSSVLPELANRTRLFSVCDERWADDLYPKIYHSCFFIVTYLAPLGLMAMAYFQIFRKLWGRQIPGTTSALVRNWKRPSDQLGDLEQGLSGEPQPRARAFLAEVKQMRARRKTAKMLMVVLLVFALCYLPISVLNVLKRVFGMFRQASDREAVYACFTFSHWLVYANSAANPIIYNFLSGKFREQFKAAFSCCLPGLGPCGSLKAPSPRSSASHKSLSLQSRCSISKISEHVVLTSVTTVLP
Description: Homogeneous Time Resolved Fluorescence (HTRF)-based cell-based high throughput dose response assay for antagonists of the orexin 1 receptor (OX1R; HCRTR1). [Related pubchem assays (depositor defined):AID434989, AID435008, AID463079, AID485270, AID492963, AID492964, AID492965, AID493232, AID504717, AID504718].

Test [3] addresses T1, Orexin/Hypocretin receptor type 1. The experiment in a line: Fluorescence-based cell-based high throughput dose response assay for antagonists of the orexin 1 receptor (OX1R; HCRTR1). [Related pubchem assays (depositor defined):AID434989, AID435008, AID463079, AID485270, AID492963, AID492964, AID492965, AID493232, AID504717, AID504718].
In test [4] the target is T2, Orexin receptor type 2 (Homo sapiens, UniProt O43614).
T2 sequence (O43614 whole entry): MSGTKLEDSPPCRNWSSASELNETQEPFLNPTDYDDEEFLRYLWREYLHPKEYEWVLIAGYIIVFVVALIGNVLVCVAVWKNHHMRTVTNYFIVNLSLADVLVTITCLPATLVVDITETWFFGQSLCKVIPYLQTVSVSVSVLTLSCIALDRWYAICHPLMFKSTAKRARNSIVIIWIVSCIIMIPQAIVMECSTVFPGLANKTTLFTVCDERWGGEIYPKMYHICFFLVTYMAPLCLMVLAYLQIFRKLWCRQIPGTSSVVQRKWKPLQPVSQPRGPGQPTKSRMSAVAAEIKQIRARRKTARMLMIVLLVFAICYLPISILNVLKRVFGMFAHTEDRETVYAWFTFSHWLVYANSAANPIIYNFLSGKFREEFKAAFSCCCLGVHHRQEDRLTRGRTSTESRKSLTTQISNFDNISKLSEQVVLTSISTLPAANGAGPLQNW
Description: Counterscreen assay for antagonists of the orexin 1 receptor (OX1R; HCRTR1): Fluorescence-based cell-based dose response assay for antagonists of the orexin 2 receptor (OX2R; HCRTR2), run by assay provider.

In test [5] the target is T2, Orexin receptor type 2. The experiment in a line: Counterscreen assay for antagonists of the orexin 1 receptor (OX1R; HCRTR1): Homogeneous Time Resolved Fluorescence (HTRF)-based cell-based dose response assay for antagonists of the orexin 2 receptor (OX2R; HCRTR2), run by assay provider.
Test [6] has as its target T3, Sentrin-specific protease 8 (Homo sapiens, UniProt Q96LD8).
T3 sequence (Q96LD8 whole entry): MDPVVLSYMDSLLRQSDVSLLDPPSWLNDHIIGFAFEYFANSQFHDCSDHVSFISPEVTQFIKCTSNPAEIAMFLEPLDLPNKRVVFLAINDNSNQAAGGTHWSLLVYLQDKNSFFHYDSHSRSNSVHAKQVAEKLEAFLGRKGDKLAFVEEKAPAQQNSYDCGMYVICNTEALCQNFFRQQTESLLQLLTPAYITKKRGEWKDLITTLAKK
The experiment in a line: SENP8 protease inhibitors, SAR follow-up, biochemical, luminescence (AID 504501).

A further test has as its target T4, Caspase-3 (Homo sapiens, UniProt P42574).
T4 sequence (P42574 whole entry): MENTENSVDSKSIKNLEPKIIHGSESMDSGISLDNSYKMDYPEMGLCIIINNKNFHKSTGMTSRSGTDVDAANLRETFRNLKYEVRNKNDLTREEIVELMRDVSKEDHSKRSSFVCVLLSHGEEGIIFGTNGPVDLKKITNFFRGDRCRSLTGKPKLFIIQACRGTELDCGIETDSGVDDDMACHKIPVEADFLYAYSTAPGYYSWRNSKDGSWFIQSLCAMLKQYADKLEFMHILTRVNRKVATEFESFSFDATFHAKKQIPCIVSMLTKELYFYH
The experiment in a line: SAR Analysis of small molecule inhibitors of Sentrin-specific proteases (SENPs) using a Caspase-3 Selectivity assay. [Related pubchem assays (depositor defined):AID2540, AID2599, AID434973, AID489001].

The target in test [7] is T5, Sentrin-specific protease 6 (Homo sapiens, UniProt Q9GZR1).
T5 sequence (Q9GZR1 whole entry): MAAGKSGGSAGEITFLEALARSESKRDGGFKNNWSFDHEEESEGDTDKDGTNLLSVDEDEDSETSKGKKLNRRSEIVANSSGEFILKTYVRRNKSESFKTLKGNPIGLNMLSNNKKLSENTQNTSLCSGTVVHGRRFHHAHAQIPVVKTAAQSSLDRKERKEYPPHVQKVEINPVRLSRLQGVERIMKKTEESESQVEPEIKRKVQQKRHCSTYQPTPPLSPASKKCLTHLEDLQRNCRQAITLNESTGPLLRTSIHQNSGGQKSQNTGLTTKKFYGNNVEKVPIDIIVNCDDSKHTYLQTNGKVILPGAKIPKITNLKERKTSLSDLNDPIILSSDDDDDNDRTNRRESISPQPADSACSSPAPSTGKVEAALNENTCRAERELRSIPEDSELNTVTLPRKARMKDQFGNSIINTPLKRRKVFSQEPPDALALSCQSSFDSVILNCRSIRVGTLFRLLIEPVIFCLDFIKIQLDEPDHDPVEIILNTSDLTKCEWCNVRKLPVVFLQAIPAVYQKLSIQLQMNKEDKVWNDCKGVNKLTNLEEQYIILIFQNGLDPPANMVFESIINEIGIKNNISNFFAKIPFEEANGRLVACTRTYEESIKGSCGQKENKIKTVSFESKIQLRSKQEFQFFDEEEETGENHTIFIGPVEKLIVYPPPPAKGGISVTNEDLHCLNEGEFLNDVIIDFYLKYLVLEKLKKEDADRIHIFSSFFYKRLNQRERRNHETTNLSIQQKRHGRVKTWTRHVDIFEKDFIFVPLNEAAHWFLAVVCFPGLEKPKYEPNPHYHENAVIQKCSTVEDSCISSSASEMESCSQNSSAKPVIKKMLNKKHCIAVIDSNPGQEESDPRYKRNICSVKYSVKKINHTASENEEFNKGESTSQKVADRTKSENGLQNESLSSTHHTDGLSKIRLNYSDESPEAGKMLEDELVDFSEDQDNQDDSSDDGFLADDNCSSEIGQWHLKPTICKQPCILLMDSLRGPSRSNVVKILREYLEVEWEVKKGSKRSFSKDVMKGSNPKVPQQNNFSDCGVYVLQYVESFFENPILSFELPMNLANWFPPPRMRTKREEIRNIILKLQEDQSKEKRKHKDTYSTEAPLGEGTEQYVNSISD
Description: SAR Analysis of small molecule inhibitors of Sentrin-specific protease 6 (SENP6) using a Luminescent assay. [Related pubchem assays (depositor defined):AID2582, AID2599].

Test [8] addresses T6, Sentrin-specific protease 7 (Homo sapiens, UniProt Q9BQF6).
T6 sequence (Q9BQF6 whole entry): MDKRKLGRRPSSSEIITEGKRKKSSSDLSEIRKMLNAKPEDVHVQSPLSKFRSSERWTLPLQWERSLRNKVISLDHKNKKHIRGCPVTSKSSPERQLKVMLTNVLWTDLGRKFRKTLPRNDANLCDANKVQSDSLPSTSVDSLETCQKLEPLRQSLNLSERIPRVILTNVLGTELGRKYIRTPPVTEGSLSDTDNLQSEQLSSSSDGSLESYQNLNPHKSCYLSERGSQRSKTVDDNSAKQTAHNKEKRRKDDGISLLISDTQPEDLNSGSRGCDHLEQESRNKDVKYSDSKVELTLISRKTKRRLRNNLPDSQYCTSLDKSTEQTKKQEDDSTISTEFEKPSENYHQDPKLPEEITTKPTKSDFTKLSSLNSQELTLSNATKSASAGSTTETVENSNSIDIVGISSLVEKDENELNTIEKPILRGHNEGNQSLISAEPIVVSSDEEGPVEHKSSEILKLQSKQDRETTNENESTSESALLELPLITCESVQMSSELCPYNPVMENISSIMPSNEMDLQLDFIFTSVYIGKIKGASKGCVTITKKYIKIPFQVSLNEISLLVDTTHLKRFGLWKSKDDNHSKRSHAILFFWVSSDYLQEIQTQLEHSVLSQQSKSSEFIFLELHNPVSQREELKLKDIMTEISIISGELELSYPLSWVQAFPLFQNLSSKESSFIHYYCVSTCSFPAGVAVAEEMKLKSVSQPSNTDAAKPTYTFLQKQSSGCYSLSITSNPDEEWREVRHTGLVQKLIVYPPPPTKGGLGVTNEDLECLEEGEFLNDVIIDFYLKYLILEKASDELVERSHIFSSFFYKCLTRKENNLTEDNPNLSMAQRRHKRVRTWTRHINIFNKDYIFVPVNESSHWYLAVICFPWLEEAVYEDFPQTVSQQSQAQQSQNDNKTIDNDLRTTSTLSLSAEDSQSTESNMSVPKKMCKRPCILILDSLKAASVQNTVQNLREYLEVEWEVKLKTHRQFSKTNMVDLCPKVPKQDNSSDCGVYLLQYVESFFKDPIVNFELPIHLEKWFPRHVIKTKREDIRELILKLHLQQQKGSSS
Description: SENP7 protease inhibitors, SAR follow-up, biochemical, luminescence (AID 504497).

Test [9] deals with Tyrosine-protein kinase Lck (Homo sapiens, UniProt P06239).
In test [10] the target is Mast/stem cell growth factor receptor Kit (Homo sapiens, UniProt P10721).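 Further: KIT entry within a kinase panel assay.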
Chain of Mast/stem cell growth factor receptor Kit (P10721 whole entry): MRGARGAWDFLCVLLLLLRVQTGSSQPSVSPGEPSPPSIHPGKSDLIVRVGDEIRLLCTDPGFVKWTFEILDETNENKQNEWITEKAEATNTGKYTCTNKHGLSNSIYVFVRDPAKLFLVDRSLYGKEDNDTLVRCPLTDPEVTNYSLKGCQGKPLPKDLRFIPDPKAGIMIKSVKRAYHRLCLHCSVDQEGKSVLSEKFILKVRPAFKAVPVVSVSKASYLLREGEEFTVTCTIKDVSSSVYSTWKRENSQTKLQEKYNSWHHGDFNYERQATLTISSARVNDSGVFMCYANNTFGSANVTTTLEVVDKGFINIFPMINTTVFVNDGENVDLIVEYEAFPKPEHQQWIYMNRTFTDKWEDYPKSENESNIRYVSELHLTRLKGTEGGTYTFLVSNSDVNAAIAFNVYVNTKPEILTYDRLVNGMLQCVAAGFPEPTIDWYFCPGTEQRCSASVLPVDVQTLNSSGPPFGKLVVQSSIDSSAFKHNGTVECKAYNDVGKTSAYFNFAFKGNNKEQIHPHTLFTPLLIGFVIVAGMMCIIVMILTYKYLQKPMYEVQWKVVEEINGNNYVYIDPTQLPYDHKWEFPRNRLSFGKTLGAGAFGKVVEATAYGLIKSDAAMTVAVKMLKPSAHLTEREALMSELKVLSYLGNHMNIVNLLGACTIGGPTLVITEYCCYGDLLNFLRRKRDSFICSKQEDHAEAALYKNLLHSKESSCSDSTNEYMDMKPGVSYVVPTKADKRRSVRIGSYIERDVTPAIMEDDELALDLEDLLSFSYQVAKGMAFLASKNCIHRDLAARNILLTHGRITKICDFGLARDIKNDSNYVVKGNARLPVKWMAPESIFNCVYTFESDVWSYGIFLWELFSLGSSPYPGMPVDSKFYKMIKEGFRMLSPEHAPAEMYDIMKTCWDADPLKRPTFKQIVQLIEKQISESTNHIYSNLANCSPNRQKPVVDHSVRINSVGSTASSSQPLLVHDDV
The target in test [11] is Tyrosine-protein kinase Lyn (Homo sapiens, UniProt P07948).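 Further: lyn as one member of a kinase panel.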
Chain of Tyrosine-protein kinase Lyn (P07948 whole entry): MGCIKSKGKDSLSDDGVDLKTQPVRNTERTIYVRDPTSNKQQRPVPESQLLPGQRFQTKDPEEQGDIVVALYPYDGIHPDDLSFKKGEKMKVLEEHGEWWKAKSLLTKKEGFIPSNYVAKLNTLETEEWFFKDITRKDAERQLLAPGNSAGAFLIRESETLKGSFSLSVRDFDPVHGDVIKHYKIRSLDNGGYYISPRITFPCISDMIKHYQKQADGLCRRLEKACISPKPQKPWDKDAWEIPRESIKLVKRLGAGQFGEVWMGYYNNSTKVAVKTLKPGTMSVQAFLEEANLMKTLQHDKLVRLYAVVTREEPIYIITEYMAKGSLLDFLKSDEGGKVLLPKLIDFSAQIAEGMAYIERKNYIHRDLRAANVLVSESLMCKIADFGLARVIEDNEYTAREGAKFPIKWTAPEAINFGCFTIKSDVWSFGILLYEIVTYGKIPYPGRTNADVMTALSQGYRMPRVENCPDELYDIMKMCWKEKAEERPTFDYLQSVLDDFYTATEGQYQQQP
In test [12] the target is Tyrosine-protein kinase Blk (Homo sapiens, UniProt P51451).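 Further: obtained as one member of a kinome-wide kinase assay panel.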
Chain of Tyrosine-protein kinase Blk (P51451 whole entry): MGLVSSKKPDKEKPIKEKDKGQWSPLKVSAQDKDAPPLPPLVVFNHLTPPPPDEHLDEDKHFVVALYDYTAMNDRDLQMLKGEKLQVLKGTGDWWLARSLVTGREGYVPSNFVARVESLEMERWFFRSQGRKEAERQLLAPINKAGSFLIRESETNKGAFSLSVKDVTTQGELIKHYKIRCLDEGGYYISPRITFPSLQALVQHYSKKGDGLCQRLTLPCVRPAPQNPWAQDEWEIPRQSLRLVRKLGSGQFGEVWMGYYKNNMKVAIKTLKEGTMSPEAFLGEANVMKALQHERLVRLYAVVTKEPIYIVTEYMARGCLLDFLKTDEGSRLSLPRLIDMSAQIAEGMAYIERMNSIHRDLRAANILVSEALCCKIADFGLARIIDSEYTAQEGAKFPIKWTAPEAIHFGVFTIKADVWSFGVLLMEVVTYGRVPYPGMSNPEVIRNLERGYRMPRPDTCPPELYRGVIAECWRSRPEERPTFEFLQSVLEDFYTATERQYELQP
Test [13] has as its target Proto-oncogene tyrosine-protein kinase Src (Homo sapiens, UniProt P12931).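 Further: SRC entry within a kinome-wide kinase profiling panel.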
In test [14] the target is Receptor-type tyrosine-protein kinase FLT3 (Homo sapiens, UniProt P36888).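 Further: FLT3 was tested as one member of a kinome-wide kinase panel.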
Chain of Receptor-type tyrosine-protein kinase FLT3 (P36888 whole entry): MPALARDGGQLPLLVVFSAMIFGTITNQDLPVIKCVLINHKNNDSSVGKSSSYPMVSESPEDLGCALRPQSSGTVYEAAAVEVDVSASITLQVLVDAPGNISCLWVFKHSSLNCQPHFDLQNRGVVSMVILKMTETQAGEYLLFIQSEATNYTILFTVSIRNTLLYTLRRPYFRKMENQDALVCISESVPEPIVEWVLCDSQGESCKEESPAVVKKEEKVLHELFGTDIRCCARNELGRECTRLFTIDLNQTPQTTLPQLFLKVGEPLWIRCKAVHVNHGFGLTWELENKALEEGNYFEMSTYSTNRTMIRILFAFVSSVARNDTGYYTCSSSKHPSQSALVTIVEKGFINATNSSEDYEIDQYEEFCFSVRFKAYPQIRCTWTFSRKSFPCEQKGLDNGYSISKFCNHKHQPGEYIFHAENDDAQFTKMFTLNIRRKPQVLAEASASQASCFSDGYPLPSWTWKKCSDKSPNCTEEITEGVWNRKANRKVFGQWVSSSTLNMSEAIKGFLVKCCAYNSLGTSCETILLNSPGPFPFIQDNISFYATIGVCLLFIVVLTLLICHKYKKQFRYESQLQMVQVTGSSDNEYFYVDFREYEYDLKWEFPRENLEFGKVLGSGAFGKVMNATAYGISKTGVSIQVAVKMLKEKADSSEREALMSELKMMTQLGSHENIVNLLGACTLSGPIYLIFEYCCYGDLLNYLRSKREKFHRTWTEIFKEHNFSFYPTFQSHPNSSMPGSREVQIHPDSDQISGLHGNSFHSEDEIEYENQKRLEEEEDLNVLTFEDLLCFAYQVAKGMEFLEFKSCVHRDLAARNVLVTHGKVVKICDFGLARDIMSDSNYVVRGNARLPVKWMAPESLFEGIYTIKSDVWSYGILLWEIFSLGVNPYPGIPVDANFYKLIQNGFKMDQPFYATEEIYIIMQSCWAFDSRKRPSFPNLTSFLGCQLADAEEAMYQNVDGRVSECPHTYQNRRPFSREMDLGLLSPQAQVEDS
The target of test [15] is Tyrosine-protein kinase ABL1 (Homo sapiens, UniProt P00519).
In test [16] the target is Vascular endothelial growth factor receptor 2 (Homo sapiens, UniProt P35968).
In test [17] the target is Vascular endothelial growth factor receptor 3 (Homo sapiens, UniProt P35916).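 Further: value from a kinome-wide profiling panel, with FLT4 as the panel member.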
Test [18] has as its target Tyrosine-protein kinase Fyn (Homo sapiens, UniProt P06241).
Test [19] concerns the target Vascular endothelial growth factor receptor 1 (Homo sapiens, UniProt P17948).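 Further: measured within a kinome-wide profiling panel, FLT1 as the panel member.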
The target of test [20] is Macrophage colony-stimulating factor 1 receptor (Homo sapiens, UniProt P07333).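 Further: value comes from the Navigating the Kinome screening panel, CSF1R member.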
Chain of Macrophage colony-stimulating factor 1 receptor (P07333 whole entry): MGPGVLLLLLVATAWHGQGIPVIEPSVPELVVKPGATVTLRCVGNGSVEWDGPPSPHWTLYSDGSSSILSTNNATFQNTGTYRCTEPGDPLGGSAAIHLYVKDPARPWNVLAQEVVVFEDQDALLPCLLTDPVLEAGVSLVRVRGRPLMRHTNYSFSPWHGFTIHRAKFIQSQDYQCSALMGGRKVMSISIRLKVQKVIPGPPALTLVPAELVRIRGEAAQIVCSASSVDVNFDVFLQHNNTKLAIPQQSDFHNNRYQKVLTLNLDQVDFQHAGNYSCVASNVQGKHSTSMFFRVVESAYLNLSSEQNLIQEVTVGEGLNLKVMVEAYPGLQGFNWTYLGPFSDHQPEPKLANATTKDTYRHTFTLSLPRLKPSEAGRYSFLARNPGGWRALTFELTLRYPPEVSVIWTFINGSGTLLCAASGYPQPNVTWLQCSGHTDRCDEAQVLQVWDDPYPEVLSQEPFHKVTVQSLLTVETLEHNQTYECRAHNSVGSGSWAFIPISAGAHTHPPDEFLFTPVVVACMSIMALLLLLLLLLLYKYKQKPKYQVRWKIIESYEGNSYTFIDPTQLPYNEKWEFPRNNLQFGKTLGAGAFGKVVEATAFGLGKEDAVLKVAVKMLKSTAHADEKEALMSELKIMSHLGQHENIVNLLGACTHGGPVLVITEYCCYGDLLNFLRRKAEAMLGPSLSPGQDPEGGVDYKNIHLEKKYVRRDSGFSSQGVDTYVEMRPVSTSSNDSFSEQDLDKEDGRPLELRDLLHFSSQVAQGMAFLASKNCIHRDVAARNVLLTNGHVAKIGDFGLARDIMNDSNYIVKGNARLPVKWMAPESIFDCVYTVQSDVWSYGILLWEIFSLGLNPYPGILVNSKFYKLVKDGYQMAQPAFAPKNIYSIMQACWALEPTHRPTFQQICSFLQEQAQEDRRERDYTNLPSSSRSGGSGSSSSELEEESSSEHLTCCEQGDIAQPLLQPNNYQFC

Each structure is given as a SMILES string. Calls of active or inactive are those of the source.

Chain of Tyrosine-protein kinase Fyn (P06241 whole entry): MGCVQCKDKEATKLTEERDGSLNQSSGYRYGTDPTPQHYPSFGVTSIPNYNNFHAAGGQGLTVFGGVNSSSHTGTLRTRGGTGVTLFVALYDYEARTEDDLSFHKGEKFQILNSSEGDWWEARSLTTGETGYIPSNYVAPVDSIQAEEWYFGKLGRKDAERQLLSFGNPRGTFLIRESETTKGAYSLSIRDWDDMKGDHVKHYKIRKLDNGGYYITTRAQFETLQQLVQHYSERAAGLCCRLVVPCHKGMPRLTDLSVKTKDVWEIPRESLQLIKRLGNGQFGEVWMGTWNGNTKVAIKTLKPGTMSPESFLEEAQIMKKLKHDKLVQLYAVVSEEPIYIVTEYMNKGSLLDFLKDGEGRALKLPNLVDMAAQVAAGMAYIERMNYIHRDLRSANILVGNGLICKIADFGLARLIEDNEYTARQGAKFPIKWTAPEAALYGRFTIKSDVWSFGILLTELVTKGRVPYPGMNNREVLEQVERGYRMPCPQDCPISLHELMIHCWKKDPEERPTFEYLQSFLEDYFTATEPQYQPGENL
Chain of Proto-oncogene tyrosine-protein kinase Src (P12931 2-536 limits assumed): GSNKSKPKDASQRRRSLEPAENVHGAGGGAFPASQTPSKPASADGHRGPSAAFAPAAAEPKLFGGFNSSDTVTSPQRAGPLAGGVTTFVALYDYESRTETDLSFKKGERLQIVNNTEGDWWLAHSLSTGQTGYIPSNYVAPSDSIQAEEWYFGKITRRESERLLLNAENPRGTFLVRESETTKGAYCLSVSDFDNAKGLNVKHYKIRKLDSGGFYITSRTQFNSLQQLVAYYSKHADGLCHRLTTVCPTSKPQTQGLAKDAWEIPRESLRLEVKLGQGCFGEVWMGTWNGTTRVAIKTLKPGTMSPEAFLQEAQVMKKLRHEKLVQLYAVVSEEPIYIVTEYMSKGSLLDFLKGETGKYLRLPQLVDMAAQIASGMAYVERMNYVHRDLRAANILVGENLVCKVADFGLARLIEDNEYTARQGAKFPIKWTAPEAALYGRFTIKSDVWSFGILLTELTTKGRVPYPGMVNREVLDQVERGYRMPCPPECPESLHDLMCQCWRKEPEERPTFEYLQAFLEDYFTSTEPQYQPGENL

What is called IC50 is the concentration needed to halve the response being measured. Take `CN(C)c1ccc(NC(=S)c2ccc3ccccc3n2)cc1`: the IC50 is > 66.3 µM (inactive) in the test on CHO-K1; > 49.8 µM (inactive) in test [1]; 2.86 µM (active) in test [2]; 6.04 µM (active) in [3]; > 88.8 µM (inactive) at Orexin receptor type 2 [4]; > 50 µM (inactive) at Orexin receptor type 2 [5].
For the compound `COc1ccc2sc(-c3ccc(N(C)C)cc3)c(C#CCO)c2c1`, the IC50 in the test with CHO-K1 was > 66.2 µM (inactive); in test [1], > 49.7 µM (inactive); in test [2] it was 6.09 µM (active); in test [3], 10.3 µM (inactive); on Orexin receptor type 2 [4], 37.4 µM (inactive); at Orexin receptor type 2 [5], > 50 µM (inactive).
Consider `ON(O)c1ccc(N/N=C/c2c[nH]c3ccccc23)cc1`, for which the IC50 (in test [6]; at Caspase-3; in [7]; in [8]) was > 99 µM (inactive) each time.
As a reminder, the Ki is the equilibrium dissociation constant of an inhibitor or competing ligand from its target. `Cn1nc(N)c2c(-c3ccc(NC(=O)Nc4cccc(C(F)(F)F)c4)cc3)ccnc21`: the Ki in [9] was 0.316 µM (active); in test [10] it was 0.000794 µM (active); in [11], 0.126 µM (active); in [12], 0.398 µM (active); in [13] it was 0.794 µM (active); in test [14], 0.00158 µM (active). Also, the Ki in test [15] is 0.2 µM (active); in [16], 0.000631 µM (active); in test [17] it was 0.00158 µM (active); in [18], 0.501 µM (active); in test [19] it was 0.000316 µM (active); in test [20] it was 0.00251 µM (active).

For the origin of these results see ChEMBL document CHEMBL1201862, “PubChem BioAssay data set” (2004).
